Assay results published in patent publication US7645588B2, “Composition comprising a cell comprising a STIM1 protein and an agent that modulates intracellular calcium and methods of use” (CalciMedica, Inc., priority 2003, dated 2010).
Read-outs that look alike come from different tables or passages of the source.

Legend:
[1] = test system: store-operated calcium entry (SOCE); details: read-out: IC50 for inhibition of calcium entry; HEK-Zeo control cells; thapsigargin-mediated store depletion followed by readdition of external calcium
Description: The relative cation permeability was assessed in HEK-Zeo and in HEK[STIM1] cells. Cells were loaded with Fluo-4 and treated with thapsigargin to discharge intracellular Ca^2+ stores (HEK-Zeo cells), or vehicle-treated (both HEK-Zeo and HEK[STIM1] cells). After 15 minutes, 10 mM BaCl2 (final concentration), 10 mM SrCl2 (final concentration), or 1.8 mM CaCl2 (final concentration) was added to elicit cation influx. To quantify the rate of cation influx, the first 30 seconds of data following cation addition was analyzed by linear regression.

STIM1-induced Ca2+ entry = details: HEK[STIM1] cells, absence of store depletion
Description: (§1) For stable cell lines overexpressing STIM1, pcDNA[STIM1/542-5] was transfected into 3×10^5 HEK293 cells using Effectene (QIAGEN) transfection reagent following the manufacturer's protocol. Forty-eight hours after transfection, cells were harvested and replated under selection with 250 μg/ml Zeocin (Invitrogen). Colonies were selected, amplified, and evaluated for expression of STIM1 mRNA and protein by RT-PCR and western blot, respectively. Limiting dilution of the STIM1 overexpressing colonies generated individual clones.

[2] = test system: store-operated calcium entry (SOCE); details: read-out: IC50 for inhibition of calcium entry; HEK[STIM1] cells; thapsigargin-mediated store depletion followed by readdition of external calcium
Description: as §1

Jurkat T cells = assay: IL-2 secretion from Jurkat T cells (ELISA); type: cell-based, human; details: Jurkat clone 4A5; 2.5 μg/ml PHA + 80 nM TPA for 20 hours
Excerpt: To test this prediction, a stable Jurkat T cell line expressing a short hairpin siRNA to suppress expression of STIM1 was generated as follows. Oligonucleotides corresponding to the STIM1-1140 siRNA (sense oligo, 5′-GATCCCGGCTCTGGATACAGTGCTCTTCAAGAGAGAGCACTGTATCCAGAGCCTTTTTTGGAAA-3′ SEQ ID NO: 99; antisense oligo, 5′-AGCTTTTCCAAAAAAGGCTCTGGATACAGTGCTCTCTCTTGAAGAGCACTGTATCCAGAGCCGG-3′ SEQ ID NO: 100) were annealed and ligated into pSilencer 2.1-U6 neo (Ambion) according to the manufacturer's protocol. Correct inserts were verified by DNA sequencing. For the control, a non-silencing scrambled siRNA (Negative Control oligo; Ambion) was generated as above. 2×10^6 Jurkat T cells were electroporated with 5 μg plasmid using a Bio-Rad Gene Pulser (140V, 30 msec, 4 pulses). Two days after transfection, cells were harvested and resuspended in media containing G-418 selection at a concentration of 1×10^4 cells/ml. 1 ml of cells/well was plated in 24-well plates. […]
To measure IL-2 secretion from Jurkat T cells, cells were plated in a 96 well plate at a density of 1.5×10^5 cells/well. […] The media was collected and analyzed for IL-2 levels by ELISA (BioSource) according to the manufacturer's protocols. […]

Row | Molecule | IC50 [1] | effect on calcium entry at lower concentrations (STIM1-induced Ca2+ entry; lower concentrations of 2-APB (biphasic effect)) | IC50 (STIM1-induced Ca2+ entry; read-out: IC50 for inhibition of constitutive calcium entry) | IC50 [2] | secretion of IL-2 upon stimulation (Jurkat T cells)
1 | NCCOB(c1ccccc1)c1ccccc1 [2-APB, 2-aminoethoxydiphenyl borate] | 11.8 µM | potentiated | 10.8 µM | 10.5 µM | 
2 | STIM1-1140 short hairpin siRNA: Short hairpin siRNA corresponding to STIM1-1140, expressed from pSilencer 2.1-U6 neo in stable Jurkat clone 4A5 (nucleic acid, target site or template, no part of the molecule) chain 1: GATCCCGGCTCTGGATACAGTGCTCTTCAAGAGAGAGCACTGTATCCAGAGCCTTTTTTGGAAA chain 2: AGCTTTTCCAAAAAAGGCTCTGGATACAGTGCTCTCTCTTGAAGAGCACTGTATCCAGAGCCGG |  |  |  |  | completely blocked
